Seven compounds from patent US12715894B2, “Triptolide conjugates and uses thereof” (priority 2020, dated 2026) can be followed below.

The subject of test [1] is huh-7 cells. Nature of the test: Huh-7 HCC animal model, antitumor efficacy against solid tumors. The settings on record: Huh-7 xenograft; for Tumor volume (V) 4 days after treatment: Compound 1 and 2 at 2.0 mg/kg i.p. once daily, Lenvatinib 5.0 mg/kg oral once daily, control V=598 mm^3; for Tumor inhibition rate based on the average tumor weights: after 21 days treatment, Compound 1 and 2 at 2.0 mg/kg i.p. daily, Lenvatinib 5.0 mg/kg oral daily; for Increase of average tumor volume by the end of the treatment compared to before the treatment: end of 3 weeks daily treatment, given as 'increased up to', control up to 15 times. The test is classed as in vivo, male nude mice. The procedure: To evaluate the antitumor efficacy of the triptolide conjugates disclosed herein against solid tumors, huh-7 cells (~10×10^6 cells) were injected into the right flank of male nude mice. When the tumors reached a volume of ~150 mm^3, the mice were randomly divided into 4 groups with 7 or 8 mice per group and were treated as below indicated. Tumor volumes were measured twice per week and estimated by using the formula: Tumor volume (V)=(L×W×W)÷2, W is tumor width, L is tumor length. • 1. Group 1 was the control group in which the mice were administered daily the vehicle (0.5% CMC-Na/carboxymethylcellulose sodium, i.p.) for 3 weeks; • 2. Group 2 was the test group in which the mice were administered daily Compound 1 (2.0 mg/kg, i.p.) for 3 weeks; • 3. Group 3 was the test group in which the mice were administered daily Compound 2 (2.0 mg/kg, i.p.) for 3 weeks; and • 4. Group 4 was the positive control group in which the mice where administered daily Lenvatinib (5.0 mg/kg, oral) for 3 weeks.

In test [2] the test system is HepG-2 cells. Nature of the test: HepG-2 HCC animal model, antitumor efficacy against solid tumors. The test is classed as in vivo, male nude mice. The settings on record: HepG-2 xenograft; Conjugate 4 at 2.0 mg/kg, Conjugates 8, 9, 10 at 6.0 mg/kg, i.p. daily for 4 weeks; vehicle group increased to 17.72 times. The procedure: To evaluate the antitumor efficacy of the novel triptolide-conjugate against solid tumors, HepG-2 cells (~10×10^6 cells) were injected into the right flank of male nude mice. when the tumors were reached a volume of ~150 mm^3, mice were randomly divided into 5 groups with 8 mice per group and treated as below indicated. Tumor volumes were measured twice per week and estimated by using the formula: Tumor volume (V)=(L×W×W) 2, W is tumor width, L is tumor length. • 1. Group 1 is the control in which the mice were daily administered vehicle (i.p. brine) for 4 weeks; • 2. in Group 2, mice were daily administered Conjugate 4 (2.0 mg/kg, i.p.) for 4 weeks; • 3. in Group 3, mice were daily administered Conjugate 8 (6.0 mg/kg, i.p.) for 4 weeks; • 4. in Group 4, mice were daily administered Conjugate 9 (6.0 mg/kg i.p.) for 4 weeks; • 5. in Group 5, mice were daily administered Conjugate 10 (6.0 mg/kg, i.p.) for 4 weeks;

A value given as a limit tells only on which side of the number the result lay.

As to `CC(C)[C@]12O[C@H]1[C@@H]1O[C@]13[C@]1(O[C@H]1C[C@H]1C4=C(CC[C@@]13C)C(=O)OC4)[C@@H]2OC(=O)CCC(=O)OC[C@H]1OC(O)[C@H](F)[C@@H](O)[C@@H]1O` (stereo partly drawn) [Compound 1, ((2R,3S,4S,5R)-5-fluoro-3,4,6-trihydroxytetrahydro-2H-pyran-2-yl)methyl ((5bS,6aS,7aR,8R,8aS,9aS,9bS,10aS,10bS)-8a-isopropyl-10b-methyl-3-oxo-1,2,3,5,5b,6,6a,8,8a,9a,9b,10b-dodecahydrotris(oxireno)[2′,3′:4b,5;2″,3″:6,7;2′″,3′″:8a,9]phenanthro[1,2-c]furan-8-yl) succinate], in test [1], the “Tumor volume (V) 4 days after treatment” value amounted to 245 mm^3, the “Tumor inhibition rate based on the average tumor weights” value (from here on “Tumor inhibition rate based”) is reported as 88.3% and the “Increase of average tumor volume by the end of the treatment compared to before the treatment” value (from here on “Increase of average tumor volume”) is reported as “up to 2.0 times”.

For the compound `CC(C)[C@]12O[C@H]1[C@@H]1O[C@]13[C@]1(O[C@H]1C[C@H]1C4=C(CC[C@@]13C)C(=O)OC4)[C@@H]2OC(=O)CCC(=O)N1CCN(C(=O)CCC(=O)N[C@@H]2C(O)O[C@@H](CO)[C@H](O)[C@H]2O)CC1` (stereo partly drawn) [Compound 2, (5bS,6aS,7aR,8R,8aS,9aS,9bS,10aS,10bS)-8a-isopropyl-10b-methyl-3-oxo-1,2,3,5,5b,6,6a,8,8a,9a,9b,10b-dodecahydrotris(oxireno)[2′,3′:4b,5;2″,3″:6,7;2′″,3′″:8a,9]phenanthro[1,2-c]furan-8-yl 4-oxo-4-(4-(4-oxo-4-(((3S,4S,5R,6S)-2,4,5-trihydroxy-6-(hydroxymethyl)tetrahydro-2H-pyran-3-yl)amino)butanoyl)piperazin-1-yl)butanoate], in test [1], the “Tumor volume (V) 4 days after treatment” value came out at 315 mm^3, the “Tumor inhibition rate based” value stood at 84.4% and the “Increase of average tumor volume” value is reported as not above 2.7 times. Turning to `CC(C)[C@]12O[C@H]1[C@@H]1O[C@]13[C@]1(O[C@H]1C[C@H]1C4=C(CC[C@@]13C)C(=O)OC4)[C@@H]2OC(=O)CNC(=O)CNC(=O)COC[C@H]1OC(O)[C@H](O)[C@@H](O)[C@@H]1O` (stereo partly shown) [Compound 4], in test [2], the “Tumor size after 28 days treatment” value is on record as “gradually shrinked to disappear”. As to `CC(C)[C@]12O[C@H]1[C@@H]1O[C@]13[C@]1(O[C@H]1CC1C4=C(CC[C@@]13C)C(=O)OC4)[C@@H]2OC(=O)CCC(=O)NC(COCCC(=O)NCCCNC(=O)CCCC(=O)N[C@H]1C(O)O[C@H](CO)[C@@H](O)[C@@H]1O)(COCCC(=O)NCCCNC(=O)CCCC(=O)N[C@H]1C(O)O[C@H](CO)[C@@H](O)[C@@H]1O)COCCC(=O)NCCCNC(=O)CCCC(=O)N[C@H]1C(O)O[C@H](CO)[C@@H](O)[C@@H]1O` (stereo partly shown) [Compound 8], the “Tumor size after 28 days treatment” value in test [2] is on record as “gradually shrinked to disappear”. Turning to `CC(C)[C@]12O[C@H]1[C@@H]1O[C@]13[C@]1(O[C@H]1CC1C4=C(CC[C@@]13C)C(=O)OC4)[C@@H]2OC(=O)CCC(=O)NC(COCCC(=O)NCCCNC(=O)CCCCO[C@@H]1O[C@H](CO)[C@@H](O)[C@H](O)[C@H]1O)(COCCC(=O)NCCCNC(=O)CCCCO[C@@H]1O[C@H](CO)[C@@H](O)[C@H](O)[C@H]1O)COCCC(=O)NCCCNC(=O)CCCCO[C@@H]1O[C@H](CO)[C@@H](O)[C@H](O)[C@H]1O` (stereo partly shown) [Compound 9], the “Tumor size after 28 days treatment” value in test [2] is “gradually shrinked to disappear”. Take `CC(=O)N[C@H]1[C@H](OCCCCC(=O)NCCCNC(=O)CCOCC(COCCC(=O)NCCCNC(=O)CCCCO[C@@H]2O[C@H](CO)[C@H](O)[C@H](O)[C@H]2NC(C)=O)(COCCC(=O)NCCCNC(=O)CCCCO[C@@H]2O[C@H](CO)[C@H](O)[C@H](O)[C@H]2NC(C)=O)NC(=O)CCC(=O)O[C@@H]2[C@@]3(C(C)C)O[C@H]3[C@@H]3O[C@]34[C@]23O[C@H]3CC2C3=C(CC[C@@]24C)C(=O)OC3)O[C@H](CO)[C@H](O)[C@@H]1O` (stereo partly shown) [Compound 10]: the “Tumor size after 28 days treatment” value in test [2] is “gradually shrinked to disappear”. Take `COc1cc2nccc(Oc3ccc(NC(=O)NC4CC4)c(Cl)c3)c2cc1C(N)=O` [Lenvatinib, reference compound]: in test [1], the “Tumor volume (V) 4 days after treatment” value is given as 381 mm^3, the “Tumor inhibition rate based” value was found to be 42.3% and the “Increase of average tumor volume” value is given as not above 9 times.
